Results as given in ChEMBL document CHEMBL5625189, “Discovery of new diaryl ether inhibitors against Mycobacterium tuberculosis targeting the minor portal of InhA” (Eur J Med Chem, 2023).
Values after ≈ are worked out from the molar mass of the structure shown.

What was measured:
Format in all cases: functional
Settings in all cases: 432 h, time 18 day
[1] = tested on: Mycobacterium tuberculosis; assay: Antimycobacterial activity against Mycobacterium tuberculosis H37Ra harbouring pMV261 plasmid assessed as inhibition of bacterial growth incubated for 18 days by drop dilution method
[2] = tested on: Mycobacterium tuberculosis; assay: Antimycobacterial activity against Mycobacterium tuberculosis H37Ra harbouring pVV2 plasmid assessed as inhibition of bacterial growth incubated for 18 days by drop dilution method
[3] = tested on: Mycobacterium tuberculosis; assay: Antimycobacterial activity against Mycobacterium tuberculosis H37Ra harbouring pVV2 plasmid overexpressing katG assessed as inhibition of bacterial growth incubated for 18 days by drop dilution method
[4] = tested on: Mycobacterium tuberculosis; assay: Antimycobacterial activity against Mycobacterium tuberculosis H37Ra harbouring pMV261 plasmid overexpressing InhA assessed as inhibition of bacterial growth incubated for 18 days by drop dilution method
[5] = tested on: Mycobacterium tuberculosis; assay: Antimycobacterial activity against Mycobacterium tuberculosis H37Ra harbouring pVV16 plasmid overexpressing hadABC assessed as inhibition of bacterial growth incubated for 18 days by drop dilution method

Structure (SMILES)	MIC [1] [µM]	MIC [2] [µM]	MIC [3] [µM]	MIC [4] [µM]	MIC [5] [µM]
CCN(CC)c1ccc2c(OCc3cn(Cc4ccc(Oc5ccccc5)c(O)c4)nn3)cc(=O)oc2c1	6.25 (≈ 3.2 µg/mL)	6.25 (≈ 3.2 µg/mL)	6.25 (≈ 3.2 µg/mL)	> 25	6.25 (≈ 3.2 µg/mL)
CCCCCCc1ccc(Oc2ccc(Cn3cc(CNc4ccc([N+](=O)[O-])c5nonc45)nn3)cc2)c(O)c1	2.5 (≈ 1.36 µg/mL)	2.5 (≈ 1.36 µg/mL)	2.5 (≈ 1.36 µg/mL)	2.5 (≈ 1.36 µg/mL)	2.5 (≈ 1.36 µg/mL)
Cc1cc(=O)oc2cc(OCc3cn(Cc4ccc(Oc5ccccc5)c(O)c4)nn3)ccc12	1.25 (≈ 0.569 µg/mL)	1.25 (≈ 0.569 µg/mL)	1.25 (≈ 0.569 µg/mL)	12.5 (≈ 5.69 µg/mL)	1.25 (≈ 0.569 µg/mL)
